Where a name gives a salt, the structure may show the parent alone.
Assays:
mouse = assay: Mouse bone formation assay for SOST antagonist candidates, examined by micro-CT; format: in vivo; conditions: complete dosing schedule, versus control solution
Description: Compounds useful in the methods of the present invention can be identified via a variety of methods known to one of skill in the art. Several exemplary methods for identifying such antagonists are described herein, including cell-based and in vitro techniques (Journal of Bone and Mineral Research 2006, 21(11), 1738-1749). A general method of identifying SOST antagonists involves evaluating the effects of antagonist candidates on bone formation under controlled conditions. Preferably bone formation is determined using micro-CT techniques on live animals. Preferred animals include rodents, more preferred are primates. Femur, tibia and vertebrae bones are particularly useful subjects for such study.
Briefly, the test animal is treated with a predetermined dose of a SOST antagonist candidate. […]
Once the dosing schedule has been completed, both test and control animals are examined to determine the quantity of bone formation present. […] Where necessary, levels of bone formation can be calculated by determining the volume of bone formation present in each animal. […]
For example, the mouse test animal is treated with a predetermined dose of a SOST antagonist candidate for a complete dosing schedule. […] Once the dosing schedule has been completed, both test and control animals are examined with sacrifice using micro-CT to determine the quantity of bone formation present.

C57BL/6 mice = assay: Bone growth with pimethixene: 30-day daily i.p. treatment, serum osteocalcin (EIA Elisa) and trabecular bone volume (micro-CT); format: in vivo, mouse; conditions: four month old male C57BL/6 mice, daily i.p. for 30 days, FIG. 2
Protocol: Four month old male C57BL/6 mice were treated daily with saline vehicle or the sclerostin inhibitor of pimethixene at several doses (via i.p) for 30 days. Study endpoints included a biochemical marker of bone formation; osteocalcin, measured by EIA Elisa, and measurement of trabecular bone volume by mico-CT analysis on the proximal tibia and spine (lumbar 5).

Wnt pathway = assay: Modulation of the Wnt pathway to promote bone growth (FIG. 1); conditions: doses of 2.5 ng (low), 125 ng (high) and 1250 ng (very high)
Protocol: For example, the mouse test animal is treated with a predetermined dose of a SOST antagonist candidate for a complete dosing schedule. A control mouse is treated with a control solution, preferably a non-irritating buffer solution or other carrier. Once the dosing schedule has been completed, both test and control animals are examined with sacrifice using micro-CT to determine the quantity of bone formation present.

Row | Structure (SMILES) | bone growth (quantity of bone formation present, micro-CT) (mouse) | increase in bone volume for lumbar 5 over baseline controls, μ-CT analysis (C57BL/6 mice; dosed at 0.01 mg/kg, 0.1 mg/kg or 10 mg/kg) | percent increase in serum osteocalcin bone formation marker over saline controls (C57BL/6 mice; dosed between 10 mg/kg and 0.1 mg/kg) | modulating the Wnt pathway to promote bone growth (Wnt pathway)
1 | CN1CCC(=C2c3ccccc3Sc3ccccc32)CC1 [pimethixene] | promoting bone growth | – | – | –
2 | CN1CCC(=C2c3ccccc3Sc3ccccc32)CC1 [pimethixene maleate] | – | greater than 30% | 25% | modulating the Wnt pathway to promote bone growth
